Measurements from PubChem BioAssay AID2387 (Broad Institute, 2010).
Where “and” joins values, the source holds several entries; their conditions need not be identical. Equal values may be shown once. Calls of active or inactive are those of the source.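 Rule for the calls: active = fitted EC50 no more than tenfold above the highest tested concentration; inconclusive = flat fit with 30 to 70% signal loss, or poor fit; inactive = the rest.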

The compounds below were run on Candida albicans CaCi-2 growth (no fluconazole), Alamar Blue (assay: C. albicans growth inhibition without fluconazole, dose response, counter-screen for fluconazole resistance reversal project, CaCi-2 strain, Alamar Blue fluorescence (AID 2387)). Conditions: C. albicans CaCi-2 (fluconazole-resistant clinical isolate) growth without fluconazole, 48 h.
With `C(=C\c1ccccc1)/CN1CCN(c2ncnc3c2oc2ccccc23)CC1` the EC50 was > 16 µM (inactive).
`C[C@@H]1CC[C@@]2(NC1)O[C@H]1C[C@H]3[C@@H]4CC=C5C[C@@H](O)CC[C@]5(C)[C@H]4CC[C@]3(C)[C@H]1[C@@H]2C` was tested, and the EC50 was > 16 µM (inactive).
In the case of `COc1cc2c(cc1NC(=O)c1ccco1)CCCC2`, the EC50 is reported as > 15 µM (inactive).
In the case of `CCNc1nc(N)nc(-c2cc(Cl)ccc2O)n1`, the EC50 is reported as > 15 µM (inactive).
With `CC1=C(CC[C@@H](C)CO)OC2CC3C4CCC5CC(O)CCC5(C)C4CC(=O)C3(C)C12` (some centres undefined) the EC50 was > 15 µM (inactive).
`O=C(N/N=C/c1cc2c3c(c1O)CCCN3CCC2)c1ccccc1O` gave an EC50 of 2.15 µM.
With `NC(=NCCCCCCN=C(N)/N=C(\N)Nc1ccc(Cl)cc1)/N=C(\N)Nc1ccc(Cl)cc1` the EC50 was > 16 µM (inactive) and > 15 µM (inactive).
In the case of `c1ccc2c(c1)CCN(c1ncnc3c1[nH]c1ccccc13)C2`, the EC50 is reported as > 15 µM (inactive).
With `O=c1[nH]c(=S)[nH]nc1Cc1ccc(Cl)c(Cl)c1` the EC50 was > 16 µM (inactive).
`Oc1c(CN2CCc3ccccc3C2)cc(Cl)c2cccnc12` was tested, and the EC50 was 4.84 µM.
In the case of `C[C@]12CCC3[C@@H](CC[C@H]4C[C@@H](O)CC[C@]34C)C1CCC2=O` (some centres undefined), the EC50 is reported as > 15 µM (inactive).
Compound `Clc1ccccc1C(c1ccccc1)(c1ccccc1)n1ccnc1` has an EC50 of 1.58 µM.
`CCCOc1ccc(C(=O)NNC(=S)NC(=O)CC)cc1` was tested, and the EC50 was > 15 µM (inactive).
In the case of `Cc1ccc(Nc2nc(N)c([N+](=O)[O-])c(N3CCC(C)CC3)n2)cc1C`, the EC50 is reported as > 15 µM (inactive).
`Cc1nn(-c2ccccc2)c(C)c1C(=O)OC/C(O)=C(\C#N)c1nc2ccccc2[nH]1` was tested, and the EC50 was > 15 µM (inactive).
In the case of `C=CCN(CC=C)Cc1c(O)ccc2c(=O)c(-c3ccccc3)coc12`, the EC50 is reported as > 15 µM (inactive).
For `CCN1CCN(C(c2cccnc2)c2cc(Cl)c3cccnc3c2O)CC1` (centres undefined), the EC50 was 15.6 µM.
With `O=C(c1cc(-c2ccccc2)n[nH]1)N1CCc2c([nH]c3ccccc23)C1c1ccccn1` (centres undefined) the EC50 was > 16 µM (inactive).
With `O=C(NCc1cc([N+](=O)[O-])ccc1O)c1cccnc1Sc1ccccc1Cl` the EC50 was > 15 µM (inactive).
With `Cc1cc(C(C#N)c2ccccc2F)n2ncnc2n1` (centres undefined) the EC50 was > 16 µM (inactive).
In the case of `O=C(CNc1ccc2ccccc2c1)N/N=C/c1ccc([N+](=O)[O-])o1`, the EC50 is reported as > 16 µM (inactive).
`Oc1ccc(N=Nc2ccc3c(c2)OCCO3)c2ncccc12` gave an EC50 of 3.31 µM.
`Cn1c(N2CCOCC2)c(/C=N/OC(=O)c2ccc(F)cc2)c2ccccc21` was tested, and the EC50 was > 16 µM (inactive).
`O=C(Nc1nnc(-c2ccncc2)o1)c1ccc2ccccc2c1` was tested, and the EC50 was > 15 µM (inactive).
For `CC(=O)c1sc(NC(=O)CCS(=O)(=O)c2ccccc2)nc1C`, the EC50 was > 15 µM (inactive).
With `Cc1cc(C)c(-c2cc(NC(=O)COC(=O)c3ccc(C#N)cc3)n(-c3ccccc3)n2)cc1C` the EC50 was > 16 µM (inactive).
`CC(C)N1CCc2c(sc(NC(=O)c3nc4ccccc4s3)c2C(N)=O)C1` was tested, and the EC50 was > 15 µM (inactive).
With `CCc1nnc(NC(=O)CSc2ncc(-c3ccccc3)n2C)s1` the EC50 was > 15 µM (inactive).
For `COc1ccc(OC)c(C2C(C(=O)c3cc4ccccc4o3)=C(O)C(=O)N2c2cc(C)on2)c1` (centres undefined), the EC50 was > 15 µM (inactive).
In the case of `Oc1c(C(Nc2nccs2)c2ccc(C(F)(F)F)cc2)ccc2cccnc12` (centres undefined), the EC50 is reported as 4.35 µM.
`Cc1ccc(NC(=O)c2noc(C(C)C)c2[N+](=O)[O-])cc1` was tested, and the EC50 was > 16 µM (inactive).
With `CN(C)S(=O)(=O)Oc1cccc(C(=O)Nc2cccc(Cl)c2)c1` the EC50 was > 15 µM (inactive).
For `CC(C)COCc1ccc(O)c2ncccc12`, the EC50 was 16.1 µM.
With `CCc1ccc2c(c1)/C(=C/C(=O)c1cccs1)C(=O)N2` the EC50 was > 15 µM (inactive).
With `Cc1ccc2nc(/C(C#N)=C\c3ccc(OC(=O)c4cccs4)cc3)[nH]c2c1` the EC50 was > 16 µM (inactive).
`Cc1cc2ccccn2c1C(C[N+](=O)[O-])c1c(F)cccc1Cl` (centres undefined) gave an EC50 of 2.82 µM.
With `COc1ccc(C(=O)N2c3ccccc3C=CC2C#N)cc1` (centres undefined) the EC50 was > 15 µM (inactive).
For `O=C1CS/C(=N\C(=O)N2c3ccccc3Sc3ccccc32)N1`, the EC50 was > 15 µM (inactive).
With `Cc1oc2c(F)c(F)c(F)c(F)c2c1S(=O)(=O)Nc1cccc(C(F)(F)F)c1` the EC50 was > 16 µM (inactive).
In the case of `O=[N+]([O-])c1c(C(Cl)Cl)nn(-c2ccc(Cl)cc2)c1N1CCCCC1`, the EC50 is reported as > 16 µM (inactive).
`Cc1c(O)c2c3c(cccc3c1O)C(=O)N(c1ccccc1)C2=O` was tested, and the EC50 was > 15 µM (inactive).
`CCc1ccc(C2c3[nH]c4ccccc4c3CCN2C(=O)c2ccc(=O)n(C)n2)cc1` (centres undefined) was tested, and the EC50 was > 16 µM (inactive).
In the case of `Cc1ccc(NC2=CC(=O)C(=O)c3ccccc32)cc1`, the EC50 is reported as > 15 µM (inactive).
`O=[N+]([O-])c1ccc(O)c(/C=N/Nc2ccc(Cl)nn2)c1` was tested, and the EC50 was 9.85 µM.
In the case of `O=C(Nc1nnc(-c2ccco2)o1)c1ccc(Cl)cc1`, the EC50 is reported as > 15 µM (inactive).
With `CCCC(=O)NC(c1ccccc1)c1ccc2cccnc2c1O` (centres undefined) the EC50 was > 16 µM (inactive).
With `O=C(CC(=O)c1cccc([N+](=O)[O-])c1)Nc1ccccc1Cl` the EC50 was > 16 µM (inactive).
For `COc1ccc(C2c3ccc4ccccc4c3Oc3ncn(CCN4CCOCC4)c(=N)c32)cc1` (centres undefined), the EC50 was > 16 µM (inactive).
`CCNC(=S)NNC(=O)c1cc(-c2cc(C)ccc2C)nc2ccccc12` was tested, and the EC50 was > 15 µM (inactive).
`Cc1cc(C(=O)Nc2sc3c(c2C#N)CCCC3)no1` was tested, and the EC50 was > 16 µM (inactive).
`C=CCOC(=O)c1sc(NC(=O)c2ccco2)nc1C` was tested, and the EC50 was > 15 µM (inactive).
`CCOc1ccc(/C=C/C2=CC(C)(C)NC(=S)N2)cc1` was tested, and the EC50 was > 15 µM (inactive).
`O=C(NCc1ccc(F)cc1)C(c1ccccc1)N(CC1CCCO1)C(=O)Cn1nnc2ccccc21` (centres undefined) was tested, and the EC50 was > 15 µM (inactive).
For `COc1ccc(OC)c(/C=C2\SC(=S)N(NS(=O)(=O)c3ccc(C)cc3)C2=O)c1`, the EC50 was > 15 µM (inactive).
In the case of `CC(=O)NC(c1ccc(C)cc1)c1cc([N+](=O)[O-])c2cccnc2c1O` (centres undefined), the EC50 is reported as > 16 µM (inactive).
In the case of `Oc1c(CN2CCN(c3ccc(F)cc3)CC2)cc(Cl)c2cccnc12`, the EC50 is reported as 2.74 µM.
`O=C1/C(=C/c2cccnc2)CCc2c1[nH]c1ccccc21` was tested, and the EC50 was > 15 µM (inactive).
In the case of `C[n+]1c2n(c3ccccc31)N=C(c1ccc(-c3ccccc3)cc1)CS2`, the EC50 is reported as > 16 µM (inactive).
`CCCC(=O)NC(c1cccs1)c1cc(Cl)c2cccnc2c1O` (centres undefined) showed an EC50 of 12 µM.
`Cc1ccc(NC(=O)CNC(=O)c2ccc(Oc3ccccc3)cc2)nc1` was tested, and the EC50 was > 15 µM (inactive).
In the case of `O=C1NC(=O)/C(=C\c2ccc(Br)o2)S1`, the EC50 is reported as > 15 µM (inactive).
In the case of `O=C(Nc1nnc(-c2ccc(F)cc2)o1)c1cccc([N+](=O)[O-])c1`, the EC50 is reported as > 15 µM (inactive).
In the case of `O=C(Nc1nnc(CCc2ccccc2)s1)c1ccco1`, the EC50 is reported as > 15 µM (inactive).
In the case of `COc1ccc(-n2c(-c3cccc(C)c3[N+](=O)[O-])n[nH]c2=S)cc1`, the EC50 is reported as > 15 µM (inactive).
`CCCCC(=O)NC(c1ccc(Cl)cc1)c1ccc2cccnc2c1O` (centres undefined) gave an EC50 of 9.92 µM.
`CCCCC(=O)NC(c1ccc(N(CC)CC)cc1)c1ccc2cccnc2c1O` (centres undefined) showed an EC50 of 8.6 µM.
For `CCN1/C(=C/C(C)=C/c2sc3ccccc3[n+]2CC)Sc2ccccc21`, the EC50 was 2.38 µM.
With `Cc1c(Cl)c([N+](=O)[O-])nn1Cc1ccc(C(=O)N/N=C\c2cc(Cl)ccc2O)o1` the EC50 was > 16 µM (inactive).
In the case of `CCCC(=O)NC(c1ccc(N(C)C)cc1)c1ccc2cccnc2c1O` (centres undefined), the EC50 is reported as > 16 µM (inactive).
With `Nc1c(S(=O)(=O)c2ccccc2)c2nc3ccccc3nc2n1CCN1CCOCC1` the EC50 was > 16 µM (inactive).
With `COc1cccc(/C=N/NC(=O)C(=O)Nc2ccccc2OC(F)(F)C(F)F)c1O` the EC50 was > 16 µM (inactive).
`CCc1cc(C(=O)NC2CCCc3c2cnn3-c2cccc(C)c2C)n(C)n1` (centres undefined) was tested, and the EC50 was > 15 µM (inactive).
In the case of `[O-][N+]1=c2ccc(Nc3ccccc3)cc2=NC12CCCCC2`, the EC50 is reported as > 15 µM (inactive).
`CC(=O)NC(c1cccs1)c1cc([N+](=O)[O-])c2cccnc2c1O` (centres undefined) was tested, and the EC50 was > 15 µM (inactive).
In the case of `COc1ccccc1NC1=C(N2CCCCC2)C(=O)c2ccccc2C1=O`, the EC50 is reported as > 16 µM (inactive).
`O=C(NNc1nc2ccc(Cl)cc2s1)c1cc(-c2cccs2)nc2ccccc12` was tested, and the EC50 was > 16 µM (inactive).
Work on `COc1ccc(Cl)cc1C(Nc1cccnc1)c1ccc2cccnc2c1O` (centres undefined) yielded an EC50 of 11.8 µM.
In the case of `O=C(NCc1ccco1)c1sc(=S)n2c1[nH]c(=O)c1ccccc12`, the EC50 is reported as > 16 µM (inactive).
With `COC(=O)Cn1nc(-c2ccccc2)c2ccccc21` the EC50 was > 15 µM (inactive).
In the case of `COc1ccc(-n2c(=O)c3c4c(sc3n3c(=S)[nH]nc23)CCCC4)cc1`, the EC50 is reported as > 16 µM (inactive).
`CCNC(=S)NNC(=O)c1cc(-c2ccccc2C)nc2ccccc12` was tested, and the EC50 was > 16 µM (inactive).
For `O=C(NNC1=C(C(=O)C(F)(F)F)CCC1)c1cccc(Cl)c1`, the EC50 was > 16 µM (inactive).
For `COc1ccc2c(c1)/C(=C/c1cnc[nH]1)C(=O)N2`, the EC50 was > 16 µM (inactive).
With `CCC(C)n1cnc2c(c1=O)c1nc3ccccc3nc1n2Cc1ccc(OC)cc1` (centres undefined) the EC50 was > 16 µM (inactive).
With `Cc1ccc(C)c(-c2nnc(NC(=O)c3ccco3)o2)c1` the EC50 was > 16 µM (inactive).
For `CCNc1nc(NC(C)C)nc(NC(C)(C)C)n1`, the EC50 was > 16 µM (inactive).
With `Cc1ccc2nc(N3C(=O)C(O)=C(C(=O)c4ccco4)C3c3ccc(C)o3)sc2c1` (centres undefined) the EC50 was > 15 µM (inactive).
In the case of `NC(=O)c1c(NC(=O)c2ccco2)sc2c1CCC2`, the EC50 is reported as > 15 µM (inactive).
For `C=CCNC(=S)Nc1sc2c(c1C(=O)OCC)CC(C)(CC)OC2` (centres undefined), the EC50 was > 15 µM (inactive).
Work on `O=Nc1c(-c2cccc([N+](=O)[O-])c2)nc2ncccn12` yielded an EC50 of 5.3 µM.
Work on `CCN1/C(=C/c2ccc3cc(C)ccc3[n+]2CC)Sc2ccc3sccc3c21` yielded an EC50 of 1.75 µM.
With `CC(C)(C)c1ccc(Cc2n[nH]c(=S)[nH]c2=O)cc1` the EC50 was > 16 µM (inactive).
`CCCCC(=O)NC(c1ccco1)c1cc(Cl)c2cccnc2c1O` (centres undefined) gave an EC50 of 10.5 µM.
`Oc1c(C(c2ccccc2Cl)N2CCCC2)ccc2cccnc12` (centres undefined) showed an EC50 of 14.3 µM.
`Oc1cccc(C(Nc2nccs2)c2ccc3cccnc3c2O)c1` (centres undefined) was tested, and the EC50 was > 16 µM (inactive).
`CCOc1ccc(NC(=O)c2cn(-c3ccc(OCC)cc3)c(=O)c3cc(OC)c(OC)cc23)cc1` was tested, and the EC50 was > 16 µM (inactive).
In the case of `Cc1ccc(C)c(NC(=S)NNC(=O)c2csc(C(C)C)c2)c1`, the EC50 is reported as > 16 µM (inactive).
In the case of `COc1ccc(-c2nnc(NC(=O)c3ccc(S(=O)(=O)N4CCCc5ccccc54)cc3)o2)cc1`, the EC50 is reported as 13.3 µM.
`COc1ccc(-n2nc(C(=O)NCC(=O)N3CCN(c4ccc(F)cc4)CC3)c3ccccc3c2=O)c(OC)c1` was tested, and the EC50 was > 15 µM (inactive).
